This is an account of results in patent publication US12023399B2, “Cleansing composition with pyrrolidone carboxylic acid” (The Procter & Gamble Company, priority 2021, dated 2024).

In this assay the test system is Staphylococcus aureus (ATCC #6538). Description: S. aureus growth on pH adjusted TSA plates. The format is cell-based. The settings on record: TSA plate pH 4.51 supplemented with 0.03% PCA, ~48 hrs at 33° C.; pH 5.99 plate without PCA shows colonies. Here is the method: The Staphylococcus aureus (ATCC #6538) bacteria cultures used herein can be created from commercially available Trypticase Soy Agar (TSA) plates that are streaked and incubated 17-20 hours at 35° C.±2° C. The resulting bacteria are grown in a conventional saline buffer solution with the optical density adjusted to deliver 10^9 to 10^10 cfu/mL. A sample of the bulk culture can be diluted 1:1,000,000 in saline buffer. 100 ul of the dilute bacteria culture is streak plated onto a TSA plate that is pH adjusted to pH 5.99 or onto a TSA plate that is pH adjusted to pH 4.51 and supplemented with 0.03% PCA. Plates are incubated ˜48 hrs at 33° C.±2° C. and photographed for growth as shown in FIGS. 2A (with pH 5.99) and 2B (with pH 4.5 and 0.03% PCA).

With `O=C1CC[C@@H](C(=O)O)N1` [PCA, pyrrolidone carboxylic acid], the “S. aureus colonies after incubation” value is on record as “no colonies are observed”.
